Reference: patent US20220389230A1, “BLAST FURNACE SLAG-TYPE PAINT” (FUKKO CO., LTD., priority 2019, published 2022)
Read-outs that look alike come from different tables or passages of the source.

Legend:
[1] = Table 2; cited from earlier work
[2] = Confirmation of safety: presence or absence of danger (Table 2)
Procedure: The presence or absence of danger was evaluated based on the concentration adjustment work in Table 1 and whether or not it was subject to legal regulations.

[3] = pH and heat of dissolution of aqueous solutions that may give an alkaline stimulus (Table 1)
[4] = Corrosiveness of alkaline substances to aluminum, change in appearance after 24 hours
Procedure: For comparison with the aqueous solution shown in Table 3, a slurry liquid obtained by adding 10 parts by weight of water to 20 parts by weight of ordinary Portland cement was allowed to contact with an aluminum plate (A1050) not subjected to the surface treatment and an aluminum sash frame coated with a sulfuric acid anodized film at the spot, and a change in the appearance after 24 hours was observed.

SMILES | Existance of legal regulation [1] | Judging danger to human body [2] | odor [2] | Generation of heat of dissolution ([3]; Table 1, concentration adjustment of the aqueous solution) | pH of aqueous solution [4] | Generation of heat of dissolution [3]
O=C([O-])CC(O)(CC(=O)[O-])C(=O)[O-].[Na+].[Na+].[Na+] [Sodium citrate] | No regulation | The risk is small | Odorless | – | – | –
[Na+].[OH-] [Sodium hydroxide] | Drastic medicine | – | – | Large | – | –
[K+].[OH-] [Potassium hydroxide] | Drastic medicine | Very dangerous | Odorless | – | 15 | Large
N [ammonia] | Drastic medicine | Very dangerous | Pungent | – | – | –
[Ca+2].[OH-].[OH-] [Calcium hydroxide] | No regulation | The risk is small | Odorless | – | 12 | –
O=C([O-])[O-].[Na+].[Na+] [sodium carbonate] | No regulation | The risk is small | Odorless | – | 12 | Medium
O=C([O-])[O-].[K+].[K+] [Potassium carbonate] | No regulation | The risk is small | Odorless | – | 11 | Medium
